Our source for the IC50 values is patent publication US12617773B2, “Azetidin-3-ylmethanol derivatives as CCR6 receptor modulators” (Idorsia Pharmaceuticals Ltd, priority 2020, dated 2026).

This experiment concerns the target T1, human CCR6 (Homo sapiens, UniProt P51684).
T1 construct: expressed in transfected cells; host or cells: HEK-293
T1 sequence (P51684 1-374): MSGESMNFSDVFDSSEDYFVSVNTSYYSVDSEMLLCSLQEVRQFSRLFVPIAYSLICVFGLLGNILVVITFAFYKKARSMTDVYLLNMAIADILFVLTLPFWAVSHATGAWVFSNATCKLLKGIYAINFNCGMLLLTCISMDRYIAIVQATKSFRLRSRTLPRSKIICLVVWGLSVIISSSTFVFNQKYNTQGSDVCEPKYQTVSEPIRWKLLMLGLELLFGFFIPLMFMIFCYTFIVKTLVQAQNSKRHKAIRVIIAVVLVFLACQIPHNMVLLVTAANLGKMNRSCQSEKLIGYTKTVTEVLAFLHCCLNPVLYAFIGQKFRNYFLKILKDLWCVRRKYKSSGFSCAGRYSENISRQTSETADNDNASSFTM
Kind of experiment: FLIPR assay (inhibition of CCL20-induced calcium signal). In kind it is cell-based. As to conditions: HEK-293 cells expressing human CCR6; mean values where determined several times; read-out: FLIPR IC50. The method in brief: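 IC50 values come from baseline-corrected peak calcium fluorescence after agonist. The agonist was CCL20 at 10 nM final, added to engineered human CCR6 HEK-293 cells following a 30-min, room-temperature, dark preincubation with serially diluted compound. Readings were taken in a fluorometric imaging plate reader.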
One may read the IC50 as the concentration that gives 50% inhibition. Consider `COc1ncc(C(O)(c2ccc(C(C)C)cc2)C2(C)CN(C)C2)cn1` (centres unmarked) [Example 272, (1,3-Dimethyl-azetidin-3-yl)-(4-isopropyl-phenyl)-(2-methoxy-pyrimidin-5-yl)-methanol], for which the IC50 was determined as 485 nM.

For the compound `CC(C)c1ccc([C@](O)(c2ccnc(N3CCCC3)c2)C2(C)CN(C)C2)cc1` [Example 273, (S)-(1,3-Dimethyl-azetidin-3-yl)-(4-isopropyl-phenyl)-(2-pyrrolidin-1-yl-pyridin-4-yl)-methanol], the IC50 came out at 32 nM. For `CC(C)c1ccc(C(O)(c2ccnc(N3CCC[C@@H]3CO)c2)C2(C)CN(C)C2)cc1` (some centres unmarked) [Example 274] the value was 252 nM; for `CC(C)c1ccc(C(O)(c2ccnc(N3CCCCC3)c2)C2(C)CN(C)C2)cc1` (centres unmarked) [Example 275], 67.1 nM; for `CC(C)c1ccc(C(O)(c2ccnc(N3CCOCC3)c2)C2(C)CN(C)C2)cc1` (centres unmarked) [Example 276], 413 nM.

As to `CC(C)c1ccc([C@](O)(c2ccnc(OCC3CCOCC3)c2)C2(C)CN(C)C2)cc1` [Example 277, (S)-(1,3-Dimethyl-azetidin-3-yl)-(4-isopropyl-phenyl)-[2-(tetrahydro-pyran-4-ylmethoxy)-pyridin-4-yl]-methanol], the IC50 amounted to 42.2 nM. To `COCCOc1cc([C@@](O)(c2ccc(C(C)C)cc2)C2(C)CN(C)C2)ccn1` [Example 278, (S)-(1,3-Dimethyl-azetidin-3-yl)-(4-isopropyl-phenyl)-[2-(2-methoxy-ethoxy)-pyridin-4-yl]-methanol] belongs 48.9 nM; to `CCc1cc([C@@](O)(c2ccc(C(C)C)cc2)C2(C)CN(C)C2)ccn1` [Example 279, (S)-(1,3-Dimethyl-azetidin-3-yl)-(2-ethyl-pyridin-4-yl)-(4-isopropyl-phenyl)-methanol], 166 nM; to `CC(C)c1ccc([C@](O)(c2ccnc(C3CCCC3)c2)C2(C)CN(C)C2)cc1` [Example 280, (S)-(2-Cyclopentyl-pyridin-4-yl)-(1,3-dimethyl-azetidin-3-yl)-(4-isopropyl-phenyl)-methanol], 37.4 nM. For `CN1CC(C)([C@](O)(c2ccc(C(F)(F)F)cc2)c2cncc(N3CCCC3)c2)C1` [Example 281, (R)-(1,3-Dimethyl-azetidin-3-yl)-(5-pyrrolidin-1-yl-pyridin-3-yl)-(4-trifluoromethyl-phenyl)-methanol] the value was 82.2 nM. To `CC(C)c1ccc([C@](O)(c2cncc(N3CC[C@@](C)(CO)C3)c2)C2(C)CN(C)C2)cc1` [Example 282] belongs 44.3 nM. On to `CC(C)c1ccc([C@](O)(c2cncc(N3CC[C@H](F)C3)c2)C2(C)CN(C)C2)cc1` [Example 283], for which the IC50 turned out to be 61.6 nM. Regarding `CC(C)c1ccc([C@](O)(c2cncc(-n3cc(C4CCOCC4)nn3)c2)C2(C)CN(C)C2)cc1` [Example 284, (R)-(1,3-Dimethyl-azetidin-3-yl)-(4-isopropyl-phenyl)-{5-[4-(tetrahydro-pyran-4-yl)-[1,2,3]triazol-1-yl}-pyridin-3-yl]-methanol], the IC50 is 222 nM.

Consider `Cc1cncc(C(O)(c2ccc(C(C)C)cc2)C2(C)CN(C)C2)c1` (centres unmarked) [Example 285], for which the IC50 stood at 78 nM. For the compound `C=C(C)c1cncc(C(O)(c2ccc(C(C)C)cc2)C2(C)CN(C)C2)c1` (centres unmarked) [Example 286], the IC50 worked out at 36.3 nM. For `CC(C)c1ccc(C(O)(c2cncc(C3CC3)c2)C2(C)CN(C)C2)cc1` (centres unmarked) [Example 287] the value was 42.8 nM; for `CC(C)c1ccc(C(O)(c2cncc(C3=CCCC3)c2)C2(C)CN(C)C2)cc1` (centres unmarked) [Example 288], 33.9 nM. To `CC(C)c1ccc(C(O)(c2cncc(C3=CC(O)CC3)c2)C2(C)CN(C)C2)cc1` (centres unmarked) [Example 289, 3-{5-[(1,3-Dimethyl-azetidin-3-yl)-hydroxy-(4-isopropyl-phenyl)-methyl]-pyridin-3-yl}-cyclopent-2-enol] belongs 82.4 nM; to `CC(C)c1ccc(C(O)(c2cncc(C(C)C)c2)C2(C)CN(C)C2)cc1` (centres unmarked) [Example 290], 100 nM; to `CC(C)c1ccc(C(O)(c2cncc(C3CCCC3)c2)C2(C)CN(C)C2)cc1` (centres unmarked) [Example 291], 24.8 nM.

With `CC(C)c1ccc(C(O)(c2cncc(C3CCC(O)C3)c2)C2(C)CN(C)C2)cc1` (centres unmarked) [Example 292], the IC50 turned out to be 748 nM. To `CC(C)c1ccc([C@](O)(c2cccnc2)C2(C)CN(C)C2)cc1` [Example 293] belongs 246 nM; to `CC(C)c1ccc([C@](O)(c2cncc(C3=CC(=O)CC3)c2)C2(C)CN(C)C2)cc1` [Example 294, 3-{5-[(R)-(1,3-Dimethyl-azetidin-3-yl)-hydroxy-(4-isopropyl-phenyl)-methyl]-pyridin-3-yl}-cyclopent-2-enone], 49.4 nM. To `CC(C)c1ccc([C@](O)(c2cncc(C3=CC(C)(O)CC3)c2)C2(C)CN(C)C2)cc1` (stereo partly drawn) [Example 295, 3-{5-[(R)-(1,3-Dimethyl-azetidin-3-yl)-hydroxy-(4-isopropyl-phenyl)-methyl]-pyridin-3-yl}-1-methyl-cyclopent-2-enol] belongs 61.1 nM; to `CC(C)c1ccc([C@](O)(c2cncc([C@H]3CCC(C)(O)C3)c2)C2(C)CN(C)C2)cc1` (stereo partly drawn) [Example 296, (3S)-3-(5-((R)-(1,3-dimethylazetidin-3-yl)(hydroxy)(4-isopropylphenyl)methyl)pyridin-3-yl)-1-methylcyclopentan-1-ol], 118 nM.

Consider `CCC1(O)CCC(c2cncc([C@@](O)(c3ccc(C(C)C)cc3)C3(C)CN(C)C3)c2)C1` (stereo partly drawn) [Example 298, 3-{5-[(R)-(1,3-Dimethyl-azetidin-3-yl)-hydroxy-(4-isopropyl-phenyl)-methyl]-pyridin-3-yl}-1-ethyl-cyclopentanol], for which the IC50 came to 65.2 nM. For `CC(C)c1ccc([C@](O)(c2cncc(C3CCC(O)(C(C)C)C3)c2)C2(C)CN(C)C2)cc1` (stereo partly drawn) [Example 299, 3-{5-[(R)-(1,3-Dimethyl-azetidin-3-yl)-hydroxy-(4-isopropyl-phenyl)-methyl]-pyridin-3-yl}-1-isopropyl-cyclopentanol] the value was 80.6 nM; for `Cc1coc(-c2cncc([C@@](O)(c3ccc(C(C)C)cc3)C3(C)CN(C)C3)c2)n1` [Example 300, (R)-(1,3-Dimethyl-azetidin-3-yl)-(4-isopropyl-phenyl)-[5-(4-methyl-oxazol-2-yl)-pyridin-3-yl]-methanol], 40.8 nM; for `CCc1cncc([C@@](O)(c2ccc(C(C)C)cc2)C2(C)CN(C)C2)c1` [Example 301, (R)-(1,3-Dimethyl-azetidin-3-yl)-(5-ethyl-pyridin-3-yl)-(4-isopropyl-phenyl)-methanol], 60 nM. For `Cc1cncc([C@@](O)(c2ccc(C(C)C)cc2)C2(C)CN(C)C2)c1` [Example 302, (R)-(1,3-Dimethyl-azetidin-3-yl)-(4-isopropyl-phenyl)-(5-methyl-pyridin-3-yl)-methanol] the value was 44.5 nM; for `CC(C)c1ccc([C@](O)(c2cncc(C3=COCC3)c2)C2(C)CN(C)C2)cc1` [Example 303, (R)-[5-(4,5-Dihydro-furan-3-yl)-pyridin-3-yl]-(1,3-dimethyl-azetidin-3-yl)-(4-isopropyl-phenyl)-methanol], 30.7 nM; for `CC(C)c1ccc([C@](O)(c2cncc(C3CCOC3)c2)C2(C)CN(C)C2)cc1` (stereo partly drawn) [Example 304, (R)-(1,3-Dimethyl-azetidin-3-yl)-(4-isopropyl-phenyl)-[5-(tetrahydro-furan-3-yl)-pyridin-3-yl]-methanol], 385 nM. With `C=C(CCO)c1cncc([C@@](O)(c2ccc(C(C)C)cc2)C2(C)CN(C)C2)c1` [Example 305, 3-{5-[(R)-(1,3-Dimethyl-azetidin-3-yl)-hydroxy-(4-isopropyl-phenyl)-methyl]-pyridin-3-yl}-but-3-en-1-ol], the IC50 was determined as 121 nM. For `CC(C)c1ccc([C@](O)(c2cncc(C(=O)NC3CCCC3)c2)C2(C)CN(C)C2)cc1` [Example 306, N-Cyclopentyl-5-[(R)-(1,3-dimethyl-azetidin-3-yl)-hydroxy-(4-isopropyl-phenyl)-methyl]-nicotinamide] the value was 101 nM; for `CC(C)c1ccc([C@](O)(c2cncc(C(=O)N3CCCC3)c2)C2(C)CN(C)C2)cc1` [Example 307], 567 nM; for `CC(C)c1ccc([C@](O)(c2cncc(C(=O)NC3CCOCC3)c2)C2(C)CN(C)C2)cc1` [Example 308], 515 nM. To `COCCCc1ccc(C(O)(c2cncc(N3CCCC3)c2)C2(C)CN(C)C2)cc1` (centres unmarked) [Example 309, (1,3-Dimethyl-azetidin-3-yl)-[4-(3-methoxy-propyl)-phenyl]-(5-pyrrolidin-1-yl-pyridin-3-yl)-methanol] belongs 58.6 nM. To `CN1CC(C)([C@](O)(c2ccc(C3CC3)cc2)c2cncc(N3CCCC3)c2)C1` [Example 310] belongs 48.6 nM.

As for `Cc1ccc([C@](O)(c2cncc(N3CCCC3)c2)C2(C)CN(C)C2)cc1` [Example 311], the IC50 came out at 140 nM. Regarding `CC(C)c1ccc([C@](O)(c2cncc(C3CCN(C(=O)OC(C)(C)C)CC3)c2)C2(C)CN(C)C2)cc1` [Example 312, 5-[(R)-(1,3-Dimethyl-azetidin-3-yl)-hydroxy-(4-isopropyl-phenyl)-methyl]-3′,4′,5′,6′-tetrahydro-2′H-[3,4′]bipyridinyl-1′-carboxylic acid tert-butyl ester], the IC50 is 23.9 nM. For `CC(C)c1ccc([C@](O)(c2cncc(C3CCN(C(=O)OC(C)(C)C)C3)c2)C2(C)CN(C)C2)cc1` (some centres unmarked) [Example 313] the value was 158 nM.
